What was measured:
[1] = system: rats; test: In vivo extraction of lead through the skin of lead-fed rats with NMP hydrogel; blood lead; design: species or system rat; conditions: Sprague Dawley rats, 750-1,000 ppm lead acetate in water supply, tail vein blood, for several weeks
Procedure: Determinations of blood lead (Pb) concentrations were conducted by obtaining a blood sample from the tail vein of the animals and analyzing them using an ESA brand LeadCare® Analyzer (Chelmsford, Mass.).
At that time, a clear hydrogel formulation containing 1 gram of the copolymer Pluronic® F127 (BASP), and 2.0 mL of deionized water and 2.0 mL of N-methyl pyrrolidone (Pharmasolve®, ISP, Wayne, N.J.) was prepared. Approximately 1.2 grams of hydrogel was applied to a 2.4 cm diameter polypropylene plastic disk. The disks were attached to a jacket which was affixed to the backs of the rats. The disks were removed after 1 hour.

[2] = system: rats; test: Detection of 14C-caffeine administered to rats: tissue radioactivity and hydrogel extraction; type: in vivo, rat; conditions: 2.5 hours
Procedure: Rats were shaven and fasted for 24 hours prior to caffeine administration by intraperitoneal injection of ^14C labeled caffeine to the 600 gram rats. Each animal received approximately 16.7 μCi of ^14C caffeine via intraperitoneal injection of 0.5 mL of ethanol and water.
A 50% NMP:50% water-Pluronic® F127 hydrogel was applied to 2.4 cm diameter plastic disks. The disks were attached to a jacket which was affixed to the backs of the rats. The disks were removed after 2.5 hours. The gel was removed and counted. The rats were sacrificed and blood and tissue were removed for analysis from each animal. The tissue samples were placed in liquid scintillation vials with 1.5 mL of Soluene® (Packard Instruments, Downers Grove, Ill.) in order to dissolve the tissues for valid liquid scintillation counting.

[3] = In vitro 3H-cocaine transport through swine skin, diffusion cells; type: in vitro ADME; conditions: donor 20 μCi/ml, receptor 50% NMP:H2O
Procedure: The receptor solution (50% NMP:H2O) was loaded in the lower chamber. Samples from the lower chamber (100 μl) were taken every hour and counted.

[4] = rat, about 16.7 μCi 14C caffeine i.p.

Question: With `CC(=O)[O-].CC(=O)[O-].[Pb+2]` [lead acetate] as the compound, how does the blood lead levels [1] read?
Answer: The blood lead levels was 50 to 60 µg/dL.

Question: For `Cn1c(=O)c2c(ncn2C)n(C)c1=O` [^14C caffeine, caffeine], which “Radioactivity (mean dpm ± SD), NMP-Pluronic F127 Hydrogel” value ([2]; extracted through rat skin into 50% NMP:50% water-Pluronic F127 hydrogel) is on record?
Answer: The value was 58.82 dpm/cm^2/hr.

Question: And the “Radioactivity (mean dpm ± SD), Blood” value [2, 4]?
Answer: Its value is 87.24 dpm/μL.

Question: And the “Radioactivity (mean dpm ± SD), Muscle” value [2, 4]?
Answer: Its value is 64.30 ± 8.73 dpm/mg.

Question: And the “Radioactivity (mean dpm ± SD), Skin” value [2, 4]?
Answer: The value was 52.15 ± 0.07 dpm/mg.

Question: Which “flux through pig skin in vitro” value [3] does the source give for `COC(=O)[C@H]1[C@@H](OC(=O)c2ccccc2)C[C@@H]2CC[C@H]1N2C` [^3H-cocaine, cocaine] here?
Answer: The value was 0.00317 μg/cm^2/hr.

— patent publication US6492180B2, “Non-invasive transdermal detection of analytes” (priority 1998, dated 2002)
